Source: patent publication US20230036854A1, “HETEROCYCLIC SPIRO-COMPOUNDS AS AM2 RECEPTOR INHIBITORS” (THE UNIVERSITY OF SHEFFIELD, priority 2018, published 2023)
Where no end group is shown, it is not given here.

What was measured:
[1] = test system: human pancreatic cancer cells; conditions: local injection directly into tumours, pancreatic cancer model; cited from earlier work
[2] = biological target: T1, AM2 receptor (1321N1 cells transfected with CALCRL+RAMP3) (Homo sapiens, UniProt O60896+Q16602); experiment: AM2 receptor inhibition, LANCE cAMP agonist-antagonist competition assay; format: cell-based; conditions: inhibition of AM induced cAMP activation, read-out: AM2 D2 protocol: pIC50 (converted)
T1 construct: host or cells: 1321N1 cells
T1 sequence (Q16602 23-461): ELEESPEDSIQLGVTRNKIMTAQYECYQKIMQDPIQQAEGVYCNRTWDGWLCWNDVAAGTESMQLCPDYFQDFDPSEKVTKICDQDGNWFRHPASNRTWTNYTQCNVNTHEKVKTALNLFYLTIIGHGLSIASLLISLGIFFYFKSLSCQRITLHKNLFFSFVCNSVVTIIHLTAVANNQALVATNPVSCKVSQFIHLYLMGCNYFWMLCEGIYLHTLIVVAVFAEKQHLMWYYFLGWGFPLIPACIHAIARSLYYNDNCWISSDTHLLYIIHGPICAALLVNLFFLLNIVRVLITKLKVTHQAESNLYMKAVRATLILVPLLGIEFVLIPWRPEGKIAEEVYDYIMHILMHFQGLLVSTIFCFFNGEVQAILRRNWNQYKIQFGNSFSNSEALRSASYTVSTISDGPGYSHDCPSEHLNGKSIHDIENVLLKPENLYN
T1 sequence (O60896 24-148): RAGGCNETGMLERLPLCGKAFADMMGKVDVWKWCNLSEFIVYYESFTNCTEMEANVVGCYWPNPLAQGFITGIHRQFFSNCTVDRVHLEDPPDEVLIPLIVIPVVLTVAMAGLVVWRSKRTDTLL
Outline: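 cAMP was quantified by LANCE TR-FRET after an EC50 challenge with adrenomedullin (15 min, room temperature) in CALCRL+RAMP3-transfected 1321N1 cells (2500/well) that had first been exposed to compound for 30 min. Buffer was pH 7.4 HBSS with HEPES and BSA. Forskolin defined 100% stimulation and vehicle 0%.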

Molecule	tumour size compared to controls [1]	IC50 [2] [nM]
AM22-52: "the AM peptide antagonist (AM22-52)"; "peptide and antibody AM2 receptor inhibitors are known such as AM22-52" (TVQKLAHQIYQFTDKDKDNVAPRSKISPQGY; ends and bridges not checked; UniProt P35318 116-146, looked up, fragment)	reduced tumour size significantly	
CNCc1ccccc1CN(CC(=O)Nc1ccc2c(c1)C[C@@]1(C2)C(=O)Nc2ncccc21)C(=O)C1(C)CCN(C(=O)C(C)NC)CC1 (stereo partly drawn) [Example 23, 4-Methyl-N-(2-((methylamino)methyl)benzyl)-1-(2-(methylamino)propanoyl)-N-(2-oxo-2-(((R)-2′-oxo-1,1′,2′,3-tetrahydrospiro[indene-2,3′-pyrrolo[2,3-b]pyridin]-5-yl)amino)ethyl)piperidine-4-carboxamide]		1.38
CCC1(C(=O)N(CC(=O)Nc2ccc3c(c2)C[C@@]2(C3)C(=O)Nc3ncccc32)Cc2ccccc2CNC)CCN(C(=O)NCC(F)(F)F)CC1 [Example 113, (R)-4-Ethyl-N4-(2-((methylamino)methyl)benzyl)-N4-(2-oxo-2-((2′-oxo-1,1′,2′,3-tetrahydrospiro[indene-2,3′-pyrrolo[2,3-b]pyridin]-5-yl)amino)ethyl)-N1-(2,2,2-trifluoroethyl)piperidine-1,4-dicarboxamide]		4.27
CNCc1ccccc1CN(CC(=O)Nc1ccc2c(c1)C[C@@]1(C2)C(=O)Nc2ncccc21)C(=O)C1(C)CCN(C(=O)c2ncccn2)CC1 [Example 18, (R)-4-Methyl-N-(2-((methylamino)methyl)benzyl)-N-(2-oxo-2-((2′-oxo-1,1′,2′,3-tetrahydrospiro[indene-2,3′-pyrrolo[2,3-b]pyridin]-5-yl)amino)ethyl)-1-(pyrimidine-2-carbonyl)piperidine-4-carboxamide]		7.41
CCC1(C(=O)N(CC(=O)Nc2ccc3c(c2)C[C@@]2(C3)C(=O)Nc3ncccc32)Cc2ccccc2CN)CCN(C(C)=O)CC1 [Example 133, (R)-1-Acetyl-N-(2-(aminomethyl)benzyl)-4-ethyl-N-(2-oxo-2-((2′-oxo-1,1′,2′,3-tetrahydrospiro[indene-2,3′-pyrrolo[2,3-b]pyridin]-5-yl)amino)ethyl)piperidine-4-carboxamide]		6.92
